Data set [1] has as its system HBE cells. Briefly: WST-1 assay (cell viability). The class given is cell-based, human. On the procedure: (§1) The potential toxicity of the peptides was measured in two ways. First, the Cytotoxicity Detection Kit (Roche) (Lactate dehydrogenase-LDH) Assay was used. It is a colorimetric assay for the quantification of cell death and cell lysis, based on the measurement of LDH activity released from the cytosol of damaged cells into the supernatant. LDH is a stable cytoplasmic enzyme present in all cells and it is released into the cell culture supernatant upon damage of the plasma membrane. An increase in the amount of dead or plasma membrane-damaged cells results in an increase of the LDH enzyme activity in the culture supernatant as measured with an ELISA plate reader, OD490 nm (the amount of color formed in the assay is proportional to the number of lysed cells). In this assay, human bronchial epithelial cells (I6HBEo14, HBE) cells were incubated with 100 μg of peptide for 24 hours, the supernatant removed and tested for LDH. The other assay used to measure toxicity of the cationic peptides was the WST-1 assay (Roche). This assay is a colorimetric assay for the quantification of cell proliferation and cell viability, based on the cleavage of the tetrazolium salt WST-1 by mitochondrial dehydrogenases in viable cells (a non-radioactive alternative to the [^3H]-thymidine incorporation assay). In this assay, HBE cells were incubated with 100 μg of peptide for 24 hours, and then 10 μl/well Cell Proliferation Reagent WST-1 was added. The cells are incubated with the reagent and the plate is then measured with an ELISA plate reader, OD490 nm.
(Formazan colour is commonly taken as a measure of viable cells.)

The format of data set [2] is cell-based.
Data set [3] has as its system A549 human epithelial cells. Briefly: Induction of chemokines (IL-8, MCP-1) in A549 cells (ELISA). Type of data set: cell-based. The conditions noted are these: peptide 10 ug/ml, 24 hr. As to the method:
The murine macrophage cell line RAW 264.7, THP-1 cells (human monocytes), a human epithelial cell line (A549), human bronchial epithelial cells (16HBEo14), and whole human blood were used. HBE cells were grown in MEM with Earle's. THP-1 cells were grown and maintained in RPMI 1640 medium. The RAW and A549 cell lines were maintained in DMEM supplemented with 10% fetal calf serum. […] DMEM was aspirated from cells grown overnight and replaced with fresh medium. After incubation of the cells with peptide, the release of chemokines into the culture supernatant was determined by ELISA (R&D Systems, Minneapolis, Minn.).
Background: ELISA stands for enzyme-linked immunosorbent assay.

Data set [4] relates to RAW 264.7 mouse macrophage cells. The class given is cell-based. Conditions: Peptide 20 μg/ml; 100 ng/ml E. coli 0111:B4 LPS, 6 h.
Data set [5] has as its system human bronchial epithelial cells (HBE). The data set is described as follows: LDH release assay (Cytotoxicity Detection Kit). The class given is cell-based. The conditions noted are these: 100 μg/ml, 24 hours; no peptide control 1.0 ± 0.05. On the procedure: as §1
Background: Release of lactate dehydrogenase indicates damage to the cell membrane.

The subject of data set [6] is BALB/c mice. The data set is described as follows: Lethal endotoxemia in galactosamine-sensitized BALB/c mice. The class given is in vivo. The conditions noted are these: 2 μg LPS; peptide 200 μg/mouse = 8 mg/kg IP 15 min after LPS; 48 hours; no peptide 10.
The subject of data set [7] is human PBMC. The data set is described as follows: TLR agonist / cytokine induced cytokine secretion by PBMC (ELISA, multiplex bead immunoassay). Conditions: TNF-α −SEQ ID NO: 1. Type of data set: cell-based. As to the method:
All assays were performed in triplicate.

Setting [8] is: Staphylococcus aureus, overnight, 96-well plate.
The mark [9] stands for this setting: Escherichia coli, overnight, 96-well plate.
Setting [10] is: Citobacter rhodensis, overnight, 96-well plate.
Setting [11] is: Enterohaemorrhagic E. coli, overnight, 96-well plate.
Setting [12] is: Pseudomonas aeruginosa, overnight, 96-well plate.
Where [13] appears, read: Salmonella enteritidis ssp. typhimurium, overnight, 96-well plate.

In brackets after ≈: the same amount, converted by molar mass. Like-named read-outs stand apart in the source and are kept apart here. Residues, ends and D or L forms follow the SMILES beside them. No end group written: not given here.

Turning to `CC[C@H](C)[C@H](NC(=O)CNC(=O)[C@H](CCCNC(=N)N)NC(=O)[C@H](CCSC)NC(=O)[C@H](C)NC(=O)[C@@H](NC(=O)[C@H](CCCNC(=N)N)NC(=O)[C@H](CCCCN)NC(=O)[C@@H](NC(=O)[C@H](CS)NC(=O)[C@@H](NC(=O)[C@@H](N)CCCNC(=N)N)[C@@H](C)O)C(C)C)C(C)C)C(=O)N[C@H](C(=O)N[C@@H](CCCNC(=N)N)C(=O)N[C@@H](CCCCN)C(=O)N[C@@H](CCCNC(=N)N)C(=O)N[C@@H](CS)C(=O)N[C@@H](CCCNC(=N)N)C(=O)O)[C@@H](C)CC` [SEQ ID NO: 33] (H-RTCVKRVAMRGIIRKRCR-OH; N-terminus and C-terminus assumed), the “OD490 nm (WST-1 cell viability)” value in data set [1] worked out at 1.75 ± 0.21 OD490 nm. Moreover, in data set [2] (24 h), the “MIC, C. rhod.” value is 64 mg/L (≈ 29.1 µM); the “MIC, E. coli” value was determined as 16 mg/L (≈ 7.26 µM); the “MIC, EHEC” value was 8 mg/L (≈ 3.63 µM); the “MIC, S. aureus” value came out at 32 mg/L (≈ 14.5 µM). Besides, the “MIC, S. typhim.” value in data set [2] (24 h) worked out at 16 mg/L (≈ 7.26 µM). For the same molecule, in data set [3], the IL-8 is 0.328 ng/mL. The “Inhibition of TNF-α” value in data set [4] was found to be 62.1 ± 0.08%. In addition, the “LDH Release (OD490 nm)” value in data set [5] amounted to 1.03 ± 0.05 OD490 nm.
For the molecule `CC[C@H](C)[C@H](NC(=O)[C@@H](NC(=O)[C@H](CCCNC(=N)N)NC(=O)[C@@H](NC(=O)[C@@H]1CCCN1C(=O)[C@H](CO)NC(=O)[C@H](CCCCN)NC(=O)[C@H](Cc1ccccc1)NC(=O)[C@@H](NC(=O)[C@H](CCCNC(=N)N)NC(=O)[C@H](CC(C)C)NC(=O)[C@H](Cc1ccccc1)NC(=O)[C@H](CO)NC(=O)[C@H](CCCCN)NC(=O)[C@H](Cc1c[nH]c2ccccc12)NC(=O)[C@@H](N)CCCCN)[C@@H](C)O)C(C)C)[C@@H](C)O)C(=O)N[C@@H](Cc1ccccc1)C(=O)N[C@@H](Cc1c[nH]cn1)C(=O)N[C@H](C(=O)N[C@@H](C)C(=O)N[C@@H](CC(C)C)C(=O)N[C@@H](CCCCN)C(=O)N1CCC[C@H]1C(=O)N[C@H](C(=O)N[C@@H](CO)C(=O)N[C@@H](CO)C(=O)O)[C@@H](C)CC)[C@@H](C)O` [SEQ ID NO: 47], the “OD490 nm (WST-1 cell viability)” value in data set [1] is given as 1.14 ± 0.23 OD490 nm. Moreover, in data set [2] (setting [8]), the “MIC, S. aureus” value was “>”. Further, the IL-8 in data set [3] is 0.383 ng/mL. The “Inhibition of TNF-α” value in data set [4] is 36.9 ± 2.2%. In addition, the “LDH Release (OD490 nm)” value in data set [5] came out at 1.05 ± 0.05 OD490 nm.
On to “DLPAKRGSAPGST (Cationic peptide) [SEQ ID NO: 12, Formula B cationic peptide]”, for which, in data set [6], the Survival is reported as 17%. Also, the “MIC, E. coli” value in data set [2] (setting [9]) is “>”. Moreover, in data set [2] (setting [8]), the “MIC, S. aureus” value is “>”. Moreover, the “Inhibition of TNF-α” value in data set [4] is 52.1 ± 0.38%.
For “KKSPIAPAIPWSR (Cationic peptide) [SEQ ID NO: 8, Formula A cationic peptide]”, in data set [2] (setting [9]), the “MIC, E. coli” value is “>”. Besides, in data set [2] (setting [8]), the “MIC, S. aureus” value is recorded as “>”. Moreover, the “Inhibition of TNF-α” value in data set [4] worked out at 39.3 ± 1.9%.
For “KWKHALMKAHMLWHMIFHTALKPISS [SEQ ID NO: 52]”, in data set [2] (24 h), the “MIC, C. rhod.” value turned out to be 2 mg/L; the “MIC, E. coli” value was 8 mg/L; the “MIC, EHEC” value came out at 2 mg/L; the “MIC, P. aerug.” value was found to be 32 mg/L. Besides, in data set [2] (24 h), the “MIC, S. typhim.” value was 8 mg/L. For the same molecule, in data set [2] (setting [8]), the “MIC, S. aureus” value was “>”. The molecule also had an IL-8 in data set [3] of 0.207 ng/mL.
For “KWKKWAHSPRKVLTRIFHTALKPISS [SEQ ID NO: 50]”, in data set [2] (24 h), the “MIC, C. rhod.” value worked out at 16 mg/L; the “MIC, E. coli” value was 8 mg/L; the “MIC, EHEC” value stood at 8 mg/L; the “MIC, P. aerug.” value was found to be 16 mg/L. Moreover, the “MIC, S. typhim.” value in data set [2] (24 h) was found to be 16 mg/L. Besides, the “MIC, S. aureus” value in data set [2] (setting [8]) is “>”. In addition, in data set [3], the IL-8 stood at 0.141 ng/mL.
On to “KWKRGAHRFMKFLSTIFHTALKPISS [SEQ ID NO: 49]”, for which, in data set [2] (24 h), the “MIC, C. rhod.” value worked out at 4 mg/L; the “MIC, E. coli” value was determined as 4 mg/L; the “MIC, EHEC” value came out at 4 mg/L; the “MIC, P. aerug.” value is 16 mg/L. The “MIC, S. typhim.” value in data set [2] (24 h) is 8 mg/L. Besides, in data set [2] (setting [8]), the “MIC, S. aureus” value was “>”. The same molecule showed an IL-8 in data set [3] of 0.301 ng/mL. In addition, the “Inhibition of TNF-α” value in data set [4] is 86.9 ± 0.69%.
For “KWKSLVMMFKKPARRIFHTALKPISS [SEQ ID NO: 51]”, the “MIC, C. rhod.” value in data set [2] (setting [10]) was 4 mg/L. Further, the “MIC, EHEC” value in data set [2] (setting [11]) was determined as 8 mg/L. Moreover, the “MIC, E. coli” value in data set [2] (setting [9]) came to 4 mg/L. For the same molecule, the “MIC, P. aerug.” value in data set [2] (setting [12]) was 8 mg/L. In data set [2] (setting [13]), the “MIC, S. typhim.” value was found to be 32 mg/L. Further, in data set [2] (setting [8]), the “MIC, S. aureus” value is given as “>”. The same molecule returned an IL-8 in data set [3] of 0.255 ng/mL.
Take “KWKSYAHTIMSPVRLVFHTALKPISS [SEQ ID NO: 54]”: the “MIC, C. rhod.” value in data set [2] (setting [10]) turned out to be 16 mg/L. For the same molecule, the “MIC, EHEC” value in data set [2] (setting [11]) worked out at 32 mg/L. The “MIC, E. coli” value in data set [2] (setting [9]) was 64 mg/L. The “MIC, P. aerug.” value in data set [2] (setting [12]) stood at 16 mg/L. The “MIC, S. typhim.” value in data set [2] (setting [13]) is 64 mg/L. Moreover, in data set [2] (setting [8]), the “MIC, S. aureus” value was “>”. For the same molecule, the IL-8 in data set [3] came out at 0.133 ng/mL. Moreover, the “Inhibition of TNF-α” value in data set [4] stood at 64 ± 0.73%.
On to SLPIKHDRLPATS [SEQ ID NO: 15], for which, in data set [6], the Survival came to 0%. Moreover, in data set [2] (24 h), the “MIC, C. rhod.” value is 128 mg/L; the “MIC, E. coli” value was determined as 128 mg/L; the “MIC, EHEC” value came to 64 mg/L. The “MIC, S. aureus” value in data set [2] (setting [8]) is “>”. Moreover, in data set [4], the “Inhibition of TNF-α” value was 69.4 ± 0.84%.
In the case of TNF-α, in data set [7] (4 hr), the “IL-1β, Ave pg/ml” value was 74 pg/mL and the “IL-8, Ave pg/ml” value was found to be 54 pg/mL. Also, in data set [7] (24 hr), the “IL-1β, Ave pg/ml” value came out at 94 pg/mL; the “IL-6, Ave pg/ml” value was found to be 9 pg/mL; the “IL-8, Ave pg/ml” value amounted to 4410 pg/mL.
